The source of these data is ChEMBL document CHEMBL1153601, “Rapid identification of improved protein ligands using peptoid microarrays” (Bioorg Med Chem Lett, 2009).

The target of assay [1] is T1, CREB-binding protein (Homo sapiens, UniProt Q92793). Nature of the assay: Binding affinity to histidine tagged KIX domain of CREB-binding protein by fluorescence polarization assay. On the technique in general: Fluorescence polarisation rises when a labelled molecule tumbles more slowly, as on binding a larger partner.
Target sequence in this assay (Q92793 whole entry, the tested form may be a part): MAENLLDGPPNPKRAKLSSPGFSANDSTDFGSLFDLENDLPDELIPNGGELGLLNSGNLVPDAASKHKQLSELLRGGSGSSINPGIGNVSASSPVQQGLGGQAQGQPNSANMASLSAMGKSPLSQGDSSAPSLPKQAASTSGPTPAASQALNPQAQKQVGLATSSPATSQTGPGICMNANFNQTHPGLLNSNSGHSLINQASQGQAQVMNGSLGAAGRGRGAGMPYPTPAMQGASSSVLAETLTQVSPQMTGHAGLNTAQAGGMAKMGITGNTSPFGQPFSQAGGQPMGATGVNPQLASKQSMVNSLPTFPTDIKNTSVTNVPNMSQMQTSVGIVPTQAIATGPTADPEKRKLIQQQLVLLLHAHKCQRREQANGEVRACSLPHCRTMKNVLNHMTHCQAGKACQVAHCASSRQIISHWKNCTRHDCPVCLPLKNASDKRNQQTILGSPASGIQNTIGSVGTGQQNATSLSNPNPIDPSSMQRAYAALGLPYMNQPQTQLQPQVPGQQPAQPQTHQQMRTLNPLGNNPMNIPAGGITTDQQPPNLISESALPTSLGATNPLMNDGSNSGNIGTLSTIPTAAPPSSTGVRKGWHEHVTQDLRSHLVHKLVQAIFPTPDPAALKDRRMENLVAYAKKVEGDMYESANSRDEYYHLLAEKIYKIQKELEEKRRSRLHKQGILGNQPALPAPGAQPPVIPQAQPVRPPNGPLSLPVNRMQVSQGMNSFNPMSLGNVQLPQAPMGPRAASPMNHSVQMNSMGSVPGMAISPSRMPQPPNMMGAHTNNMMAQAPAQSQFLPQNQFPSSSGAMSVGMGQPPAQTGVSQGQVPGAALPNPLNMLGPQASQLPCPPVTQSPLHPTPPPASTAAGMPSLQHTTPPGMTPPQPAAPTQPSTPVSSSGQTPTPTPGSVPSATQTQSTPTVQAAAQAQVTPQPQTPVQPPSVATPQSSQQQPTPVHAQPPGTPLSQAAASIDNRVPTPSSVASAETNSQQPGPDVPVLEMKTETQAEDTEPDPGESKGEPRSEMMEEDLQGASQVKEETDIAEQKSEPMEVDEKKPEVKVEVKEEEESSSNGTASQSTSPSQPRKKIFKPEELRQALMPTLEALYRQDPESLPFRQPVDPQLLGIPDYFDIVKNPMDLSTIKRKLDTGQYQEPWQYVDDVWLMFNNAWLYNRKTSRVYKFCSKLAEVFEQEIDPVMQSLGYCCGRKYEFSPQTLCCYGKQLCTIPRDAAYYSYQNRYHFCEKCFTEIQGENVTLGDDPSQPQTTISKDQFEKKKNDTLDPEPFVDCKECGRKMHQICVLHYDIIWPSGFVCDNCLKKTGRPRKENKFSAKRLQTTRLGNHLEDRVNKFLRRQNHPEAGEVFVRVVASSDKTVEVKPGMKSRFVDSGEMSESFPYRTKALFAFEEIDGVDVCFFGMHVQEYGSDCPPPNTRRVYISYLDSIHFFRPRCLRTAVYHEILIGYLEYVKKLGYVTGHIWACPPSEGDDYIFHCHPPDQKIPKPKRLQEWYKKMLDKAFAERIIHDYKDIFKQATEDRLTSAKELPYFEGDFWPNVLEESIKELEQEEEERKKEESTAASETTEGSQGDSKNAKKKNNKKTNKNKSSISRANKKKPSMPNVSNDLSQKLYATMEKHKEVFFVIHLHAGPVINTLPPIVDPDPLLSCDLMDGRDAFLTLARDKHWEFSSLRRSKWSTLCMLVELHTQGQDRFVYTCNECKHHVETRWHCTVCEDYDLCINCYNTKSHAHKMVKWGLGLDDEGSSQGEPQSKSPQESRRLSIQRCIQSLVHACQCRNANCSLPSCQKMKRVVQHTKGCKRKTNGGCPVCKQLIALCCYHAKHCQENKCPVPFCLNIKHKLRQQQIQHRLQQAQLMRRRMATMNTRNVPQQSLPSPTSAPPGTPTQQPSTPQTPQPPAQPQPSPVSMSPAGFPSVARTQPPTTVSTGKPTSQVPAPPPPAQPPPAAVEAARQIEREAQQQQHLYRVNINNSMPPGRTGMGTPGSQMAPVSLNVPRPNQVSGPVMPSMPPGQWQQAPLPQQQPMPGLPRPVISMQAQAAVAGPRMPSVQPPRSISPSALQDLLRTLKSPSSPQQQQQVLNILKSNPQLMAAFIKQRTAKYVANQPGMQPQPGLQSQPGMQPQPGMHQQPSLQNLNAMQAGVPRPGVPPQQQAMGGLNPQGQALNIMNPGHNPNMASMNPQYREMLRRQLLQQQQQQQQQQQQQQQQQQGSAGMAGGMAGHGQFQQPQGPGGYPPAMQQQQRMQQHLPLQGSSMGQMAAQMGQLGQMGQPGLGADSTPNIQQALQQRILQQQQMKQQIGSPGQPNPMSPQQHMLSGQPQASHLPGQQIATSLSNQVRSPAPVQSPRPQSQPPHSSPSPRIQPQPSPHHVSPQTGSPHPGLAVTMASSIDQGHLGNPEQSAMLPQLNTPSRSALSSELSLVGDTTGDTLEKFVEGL
Assay [2] has as its target T1, CREB-binding protein. Nature of the assay: Binding affinity to histidine tagged KIX domain of CREB-binding protein expressed in Escherichia coli by affinity purification assay.
Target sequence in this assay (Q92793 2-2442 limits assumed): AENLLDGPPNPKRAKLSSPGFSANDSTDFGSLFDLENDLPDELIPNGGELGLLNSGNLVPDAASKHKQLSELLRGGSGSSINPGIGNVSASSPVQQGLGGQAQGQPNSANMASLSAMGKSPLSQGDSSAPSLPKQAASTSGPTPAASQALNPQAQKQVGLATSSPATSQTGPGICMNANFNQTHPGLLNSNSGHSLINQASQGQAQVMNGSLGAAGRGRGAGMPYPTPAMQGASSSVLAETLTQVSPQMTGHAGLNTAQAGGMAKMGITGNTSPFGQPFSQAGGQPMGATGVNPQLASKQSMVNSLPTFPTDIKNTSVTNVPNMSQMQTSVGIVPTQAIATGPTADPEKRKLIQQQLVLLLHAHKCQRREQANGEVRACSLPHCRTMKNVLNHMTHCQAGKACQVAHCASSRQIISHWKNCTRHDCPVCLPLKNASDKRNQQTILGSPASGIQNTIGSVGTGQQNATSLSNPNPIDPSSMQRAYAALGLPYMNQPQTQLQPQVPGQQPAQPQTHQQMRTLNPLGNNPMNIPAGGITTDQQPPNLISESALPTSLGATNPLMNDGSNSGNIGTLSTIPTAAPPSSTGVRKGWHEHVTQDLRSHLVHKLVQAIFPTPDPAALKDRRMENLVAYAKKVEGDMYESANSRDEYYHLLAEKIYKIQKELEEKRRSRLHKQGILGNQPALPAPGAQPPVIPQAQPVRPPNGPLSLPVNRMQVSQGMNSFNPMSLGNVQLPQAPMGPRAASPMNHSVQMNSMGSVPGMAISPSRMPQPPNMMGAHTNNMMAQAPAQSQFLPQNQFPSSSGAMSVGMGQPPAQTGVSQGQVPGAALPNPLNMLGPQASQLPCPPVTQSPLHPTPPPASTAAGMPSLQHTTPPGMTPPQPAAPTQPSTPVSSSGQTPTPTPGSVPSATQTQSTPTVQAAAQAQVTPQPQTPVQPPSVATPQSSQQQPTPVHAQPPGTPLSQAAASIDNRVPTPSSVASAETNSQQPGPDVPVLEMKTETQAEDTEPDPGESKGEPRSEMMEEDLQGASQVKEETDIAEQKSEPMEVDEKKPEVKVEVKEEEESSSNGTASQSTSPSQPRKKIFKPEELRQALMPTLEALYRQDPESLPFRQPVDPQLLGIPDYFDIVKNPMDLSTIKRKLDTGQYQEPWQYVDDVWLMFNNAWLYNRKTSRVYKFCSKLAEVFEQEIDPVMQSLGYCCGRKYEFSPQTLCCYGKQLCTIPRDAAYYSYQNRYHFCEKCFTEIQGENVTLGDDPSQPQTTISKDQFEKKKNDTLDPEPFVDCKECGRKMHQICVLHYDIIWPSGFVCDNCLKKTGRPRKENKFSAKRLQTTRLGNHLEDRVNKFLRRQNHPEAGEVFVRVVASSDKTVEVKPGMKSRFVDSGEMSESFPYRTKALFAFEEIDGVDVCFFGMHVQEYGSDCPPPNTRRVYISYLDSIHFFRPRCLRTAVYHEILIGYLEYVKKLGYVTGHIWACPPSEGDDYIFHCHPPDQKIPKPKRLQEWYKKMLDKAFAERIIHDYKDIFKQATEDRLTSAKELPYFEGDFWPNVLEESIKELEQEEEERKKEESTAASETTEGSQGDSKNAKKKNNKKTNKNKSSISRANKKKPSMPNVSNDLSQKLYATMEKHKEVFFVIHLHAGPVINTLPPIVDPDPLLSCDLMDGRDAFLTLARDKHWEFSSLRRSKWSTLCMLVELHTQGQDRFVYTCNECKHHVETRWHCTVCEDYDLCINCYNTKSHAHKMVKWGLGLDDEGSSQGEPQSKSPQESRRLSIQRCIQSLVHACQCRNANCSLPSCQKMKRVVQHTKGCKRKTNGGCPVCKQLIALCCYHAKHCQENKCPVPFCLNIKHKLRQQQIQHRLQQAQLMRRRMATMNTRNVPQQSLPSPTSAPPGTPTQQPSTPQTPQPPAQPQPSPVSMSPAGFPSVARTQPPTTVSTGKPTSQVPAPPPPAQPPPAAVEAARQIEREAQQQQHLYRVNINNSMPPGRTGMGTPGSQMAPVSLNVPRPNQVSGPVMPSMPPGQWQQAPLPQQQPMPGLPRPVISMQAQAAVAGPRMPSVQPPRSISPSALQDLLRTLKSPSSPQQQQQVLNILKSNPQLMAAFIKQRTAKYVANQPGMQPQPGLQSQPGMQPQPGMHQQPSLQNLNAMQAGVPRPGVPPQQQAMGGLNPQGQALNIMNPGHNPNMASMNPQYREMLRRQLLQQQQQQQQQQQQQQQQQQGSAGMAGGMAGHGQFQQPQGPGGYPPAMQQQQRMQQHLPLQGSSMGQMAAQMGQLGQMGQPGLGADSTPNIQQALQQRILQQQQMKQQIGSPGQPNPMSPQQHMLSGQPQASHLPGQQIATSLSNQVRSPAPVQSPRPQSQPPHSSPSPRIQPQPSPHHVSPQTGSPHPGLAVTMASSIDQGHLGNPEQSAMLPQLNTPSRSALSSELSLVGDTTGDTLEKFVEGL

pKd: −log10 of the molar value. Active and inactive are the calls of the source. The rule behind the calls is not given here. Where a SMILES comes first, the peptide text is derived from it. [ ]: non-standard residue; d: D form. Gly(N-piperonyl) = O=C(O)CNCc1ccc2c(c1)OCO2; Gly(N-propargyl) = C#CCNCC(=O)O; NFurfurylGly = O=C(O)CNCc1ccco1; NAllylGly = C=CCNCC(=O)O; Nleu = CC(C)CNCC(=O)O; Nlys = NCCCCNCC(=O)O

One may read the pKd as the negative decadic logarithm of the Kd, by convention in mol/L. A lower pKd goes with a high Kd. At CREB-binding protein [1], `C=CCN(CC(=O)N(CC(N)=O)CC(C)C)C(=O)CN(Cc1ccco1)C(=O)CN(Cc1ccco1)C(=O)CN(Cc1ccco1)C(=O)CN(CC(C)C)C(=O)CNCc1cn(CCCCN(CC(N)=O)C(=O)CN(Cc2ccc3c(c2)OCO3)C(=O)CN(CCCCN)C(=O)CN(Cc2ccc3c(c2)OCO3)C(=O)CN(CC(C)C)C(=O)CN(CCCCN)C(=O)CNCc2ccc3c(c2)OCO3)nn1` gave a pKd of 5.08.

`CC(C)CN(CC(=O)N(CC(=O)N(CCCCN)CC(=O)N(CC(=O)N(CCCCn1cc(CNCC(=O)N(CC(=O)N(CCO)CC(=O)N(CC(=O)N(CC(=O)N(CCCCN)CC(=O)N(CC(N)=O)Cc2ccco2)Cc2ccco2)Cc2ccc3c(c2)OCO3)Cc2ccco2)nn1)CC(N)=O)Cc1ccc2c(c1)OCO2)Cc1ccc2c(c1)OCO2)C(=O)CN(CCCCN)C(=O)CNCc1ccc2c(c1)OCO2` showed a pKd at CREB-binding protein [1] of 4.14. On to `CC(C)CN(CC(=O)N(CCCCN)CC(=O)N(CC(N)=O)Cc1ccc2c(c1)OCO2)C(=O)CN(Cc1ccc2c(c1)OCO2)C(=O)CN(CCCCN)C(=O)CNCc1ccc2c(c1)OCO2` (H-[Gly(N-piperonyl)][Nlys][Gly(N-piperonyl)][Nleu][Nlys][Gly(N-piperonyl)]-NH2), for which the result at CREB-binding protein [2] was inactive. The compound further had a negative-log Kd (pKd) at CREB-binding protein [1] of 3.71. On the same counts, the results for `C#CCNCC(=O)N(CC(=O)N(CC(=O)N(CC(=O)N(CC(=O)N(CC=C)CC(=O)N(CC(N)=O)CC(C)C)Cc1ccco1)Cc1ccco1)Cc1ccco1)CC(C)C` (H-[Gly(N-propargyl)][Nleu][NFurfurylGly][NFurfurylGly][NFurfurylGly][NAllylGly][Nleu]-NH2) are “Active” and 5.34.
